{
  "source": "patent US10603273B2",
  "about": "“Membrane-adherent self-assembled systems for treatment of ocular disorders” (Integral Biosystems LLC, priority 2014, dated 2020)",
  "key": {"[1]": {"assay": "In-vitro drug release, dialysis device, 1% HP-β-CD phosphate buffer pH 7.4, 37° C.", "assay_type": "in vitro ADME", "details": "0.1% nanostructured dispersion; released over 3 hours", "method": "In-vitro drug release was determined at 37° C., pH 7.4 as follows: The Phase III dispersion (1 g) was transferred into a Spectra/Pore Float-A-Lyzer G2 dialysis device, which was then placed into a 50 mL locking centrifuge tube containing 40 g of 1% hydroxylpropyl-β-cyclodextrin (HP-β-CD) in phosphate buffer at pH 7.4, 37° C. The entire assembly was loaded onto a Robbins Scientific Model 400 rotating incubator. At each time point, 1 mL of sample was retrieved and fresh buffer added to replace the volume removed. Samples were measured for drug content using HPLC at λmax=239 nm."}, "[2]": {"assay": "Solubility of API in Phase I excipient mixtures", "assay_type": "physicochemical", "method": "Solubility of APIs were examined in different Phase I mixtures.\nInitially, the solubility of fluticasone propionate was determined in 10 g of Phase I composed of a 7:3 (w/w) mixture of PHOSAL™ Medium Chain Triglycerides (“MCT”) and polyethylene glycol-400 (PEG-400). MCT, a mixture of phosphatidylcholine and medium chain triglycerides, is the hydrophobic component and PEG-400 is the hydrophilic component in this exemplary Phase I. MCT and PEG-400 were added into a glass vial and the mixture was vortexed for 2 min until the components formed a homogeneous mixture. Fluticasone propionate was added in an incremental manner and stirred at 850 rpm using a Scilogex MSH 280 Pro hot stir plate at a temperature of 37° C. Stirring was continued until saturation solubility was reached.\nIn order to increase the solubility of the fluticasone propionate in Phase I, mineral oil (Drakeol 600LT) was added into the composition. A Phase I containing MCT: PEG-400: mineral oil weight ratio of 7:2:1 was prepared as described above. The total amount of Phase I was 10 g. Fluticasone propionate was added in an incremental manner and the mixture was stirred for 5 min. and vortexed for 5 min after each addition of fluticasone propionate into the mixture. In this Phase I, 98.2 mg of fluticasone propionate dissolved completely in 37 min.\nAnother Phase I mixture containing PEG-400, polypropylene glycol (PPG), and cremophor in a weight ratio 2.9:7:0.1 was also evaluated. Cremophor was used because it is widely used as a co-solvent to enhance the solubility of poorly soluble drugs.\nIn this Phase I, 200.30 mg of fluticasone propionate was completely dissolved in 10 g when stirred at 1200 rpm for 2 min at 45° C.\nAnother Phase I mixture was produced containing 30% w/w PEG-400, 60% w/w PPG, 5% w/w MCT, 0.25% w/w cetyl alcohol, and 4.75% w/w ethanol. In 10 g of this Phase I, 180 mg fluticasone propionate dissolved completely after stirring at 1280 rpm for 15 min at 45° C.\nTriamcinolone acetonide is a […] anti-inflammatory drug having low aqueous solubility.\nA Phase I containing 30% w/w PEG-400, 20% w/w PPG, 0.5% w/w cetyl alcohol, 9.5% w/w ethanol, 5% w/w MCT and 35% w/w Castor oil was produced. Triamcinolone acetonide was added incrementally and the mixture stirred at 840 rpm using a Scilogex MSH 280 Pro set to 45° C."}, "[3]": {"assay": "Particle size distribution (Horiba particle size analyzer)", "assay_type": "physicochemical", "details": "nanodispersion of the named drug, drug delivery platform of Example 1", "method": "Particle sizing was carried out by adding approximately 20 μL of the Phase III dispersion in a solution of 2% w/w glycerin, 0.1% w/w sodium pyrophosphate decahydrate. Particle size distribution of the Phase III nano-dispersions were measured using a Horiba LA-950V2 particle size analyzer at room temperature, i.e., 22-25° C."}, "[4]": {"assay": "Solubility of fluticasone propionate in nanostructured dispersions and single excipients", "assay_type": "physicochemical", "details": "for solubility: oil or lipid", "method": "Phase I was prepared containing PEG-400 at 20%, PPG at 10%, cetyl alcohol at 10%, MCT at 1%, PEG-stearate at 7%, poloxamer 407 at 2.22%, tyloxapol at 1%, polysorbate 80 at 1%, castor oil at 38%, and fluticasone propionate at 1-2%.\nThe composition of Phase II was sodium phosphate monobasic (0.017%), sodium phosphate dibasic (0.052%), sodium hyaluronate (0.15%), and dH2O (99.78%).\nPhase I was mixed with Phase II at a weight ratio of 1:9.\nThe concentration of fluticasone propionate achievable in this formulation was 0.1-0.2%.\nThe solubility of fluticasone propionate in cetyl alcohol was 0.3 mg/ml. As just described, the final dispersion has a fluticasone propionate concentration of 1-2 mg/ml (0.1-0.2%).\nIn this example, cholesterol was added to obtain a higher concentration of hydrophobic excipients. The composition of Phase I was PEG-400 (20%), PPG (10%), cetyl alcohol (10%), cholesterol (2%), MCT (10%), PEG-stearate (5%), poloxamer 407 (2.22%), tyloxapol (1%), polysorbate 80 (1%), castor oil (36.9%), and fluticasone propionate (1-5%).\nThe final concentration of fluticasone propionate achievable in this formulation is 0.1-0.5% The maximum amount of fluticasone propionate expected to be solubilized by adding up the amount solubilized in each separate excipient is 0.06%."}, "[5]": {"assay": "Encapsulation efficiency (centrifugation, HPLC)", "assay_type": "physicochemical", "details": "0.1% nanostructured dispersion (Phase III); mg drug per g dispersion", "method": "Encapsulation efficiency (mg/G) was measured by placing 1.0 g of drug-containing Phase III into a 1.5 mL centrifuge tube and centrifuging it at 6000 rpm for 10 minutes using an Eppendorf Centrifuge 5145D at room temperature. 100 μL of the centrifugate was transferred to an HPLC vial containing 900 μL of 75% acetonitrile/25% water. The samples were measured for concentration of drug, e.g., dexamethasone, by HPLC at λmax=239 nm. The concentration was calculated as mg drug per g of the Phase III dispersion."}, "freshly excised cornea": {"system": "freshly excised cornea", "assay": "Ex-vivo corneal permeability, Franz-Cell diffusion chamber", "assay_type": "in vitro ADME, calf", "details": "% of applied drug in 22 hours, 37° C.", "source_text": "Ex-vivo corneal permeability testing is a useful tool to screen formulations for their ability to penetrate ocular tissues. Using freshly excised cornea, formulations can be tested for their ability to diffuse across the cornea membrane. The ability to diffuse through biological membranes is directly related to the formulation excipients, its physical state (e.g., suspension, solution, emulsion, dispersion) and its partition coefficient (P) and log P. Fresh calf eyes were obtained from a nearby slaughterhouse and the corneas carefully excised using sterile technique. The corneas must be freshly excised and used within 1-2 hours. The corneas were excised in a sterilized laminar flow hood, in a Class 100 environment. The excisions were performed by first draining the aqueous humor followed by carefully cutting out the cornea using a scalpel for the initial incision; forceps and scissors were used to cut the remaining tissue. […] The volume was recorded, and the remaining cells filled. […] Samples were added in rapid succession by depositing 200 μL of the formulation into each donor chamber using a calibrated pipet and the times recorded. […] The samples were analyzed for API content by HPLC as described above. […] Flux can be calculated by the formula: J=Q/(A·t), where Q is the quantity of compound traversing the membrane in time t, and A is the area of exposed membrane in cm^2. […]"}},
  "note": "Like-named read-outs stand apart in the source and are kept apart here.",
  "data": [
    {"smiles": "C[C@@H]1C[C@H]2[C@@H]3CCC4=CC(=O)C=C[C@]4(C)[C@@]3(F)[C@@H](O)C[C@]2(C)[C@@]1(O)C(=O)CO", "note": "[dexamethasone]", "values": [
      {"measurement": "in vitro drug release", "setting": "[1]", "value": "at least 25%"}
    ]},
    {"smiles": "CCC(=O)O[C@]1(C(=O)SCF)[C@H](C)C[C@H]2[C@@H]3C[C@H](F)C4=CC(=O)C=C[C@]4(C)[C@@]3(F)[C@@H](O)C[C@@]21C", "note": "[fluticasone propionate]", "values": [
      {"measurement": "amount completely dissolved in Phase I", "setting": "[2]; in 10 g of 5% cetyl alcohol in ethanol, 1200 rpm, 2 min, 45° C.", "value": 200.30, "unit": "mg"},
      {"measurement": "amount dissolved completely in Phase I", "setting": "[2]; in 10 g of Phase I, MCT:PEG-400:mineral oil 7:2:1, dissolved in 37 min", "value": 98.2, "unit": "mg"},
      {"measurement": "amount dissolved in Phase I", "setting": "[2]; in 10 g of Phase I: 30% PEG-400, 60% PPG, 5% MCT, 0.25% cetyl alcohol, 4.75% ethanol, 1280 rpm, 45° C.", "value": 180, "unit": "mg"},
      {"measurement": "D50", "setting": "[3]", "value": 0.141, "unit": "μm"},
      {"measurement": "D90", "setting": "[3]", "value": 0.181, "unit": "μm"},
      {"measurement": "maximum concentration expected from adding the solubilized contribution of each excipient", "setting": "[4]; Example 8 excipients", "value": 0.05, "unit": "%"},
      {"measurement": "fluticasone propionate concentration of final dispersion", "setting": "[4]; Example 8 final dispersion", "value": "1 to 2", "unit": "mg/mL"},
      {"measurement": "concentration of fluticasone propionate achievable in formulation", "setting": "[4]; Example 8 formulation, Phase I:Phase II 1:9, by weight", "value": "0.1-0.2%"},
      {"measurement": "maximum amount expected to be solubilized by adding up the amount solubilized in each separate excipient", "setting": "[4]; Example 9 excipients", "value": 0.06, "unit": "%"},
      {"measurement": "final concentration of fluticasone propionate achievable in formulation", "setting": "[4]; Example 9 formulation with cholesterol, Phase I:Phase II 1:9", "value": "0.1-0.5%"},
      {"measurement": "solubility", "setting": "[4]; PHOSAL MCT alone, read-out: solubility in MCT", "value": 0.15, "unit": "mg/mL"},
      {"measurement": "solubility", "setting": "[4]; cetyl alcohol alone, read-out: solubility in cetyl alcohol", "value": 0.3, "unit": "mg/mL"}
    ]},
    {"smiles": "CCOC(=O)O[C@]1(C(=O)OCCl)CC[C@H]2[C@@H]3CCC4=CC(=O)C=C[C@]4(C)[C@H]3[C@@H](O)C[C@@]21C", "note": "[loteprednol etabonate]", "values": [
      {"measurement": "amount of drug encapsulated", "setting": "[5]", "value": 1.24, "unit": "mg/G"},
      {"measurement": "in vitro drug release", "setting": "[1]", "value": 35, "unit": "%"},
      {"measurement": "corneal permeability, drug released into the receptor solution", "setting": "freshly excised cornea", "value": 36, "unit": "%"}
    ]},
    {"smiles": "CC1(C)O[C@@H]2C[C@H]3[C@@H]4CCC5=CC(=O)C=C[C@]5(C)[C@@]4(F)[C@@H](O)C[C@]3(C)[C@]2(C(=O)CO)O1", "note": "[triamcinolone acetonide]", "values": [
      {"measurement": "saturation solubility in Phase I", "setting": "[2]; in 10 g of Phase I: 30% PEG-400, 20% PPG, 0.5% cetyl alcohol, 9.5% ethanol, 5% MCT, 35% castor oil, 840 rpm, 45° C.", "value": 230, "unit": "mg"}
    ]}
  ]
}
